The text below walks through data of article PMC6437697 (Journal of Medicinal Chemistry, 2019).

Holding throughout (assay): KINOMEscan
What all share (format): binding
Holding throughout (conditions): read-out: % control activity remaining

One experiment addresses T1, FLT3(K663Q) (Homo sapiens, UniProt P36888, K663Q).
T1 construct: purchased Eurofins DiscoverX KINOMEscan
T1 sequence (P36888 27-993 K663Q): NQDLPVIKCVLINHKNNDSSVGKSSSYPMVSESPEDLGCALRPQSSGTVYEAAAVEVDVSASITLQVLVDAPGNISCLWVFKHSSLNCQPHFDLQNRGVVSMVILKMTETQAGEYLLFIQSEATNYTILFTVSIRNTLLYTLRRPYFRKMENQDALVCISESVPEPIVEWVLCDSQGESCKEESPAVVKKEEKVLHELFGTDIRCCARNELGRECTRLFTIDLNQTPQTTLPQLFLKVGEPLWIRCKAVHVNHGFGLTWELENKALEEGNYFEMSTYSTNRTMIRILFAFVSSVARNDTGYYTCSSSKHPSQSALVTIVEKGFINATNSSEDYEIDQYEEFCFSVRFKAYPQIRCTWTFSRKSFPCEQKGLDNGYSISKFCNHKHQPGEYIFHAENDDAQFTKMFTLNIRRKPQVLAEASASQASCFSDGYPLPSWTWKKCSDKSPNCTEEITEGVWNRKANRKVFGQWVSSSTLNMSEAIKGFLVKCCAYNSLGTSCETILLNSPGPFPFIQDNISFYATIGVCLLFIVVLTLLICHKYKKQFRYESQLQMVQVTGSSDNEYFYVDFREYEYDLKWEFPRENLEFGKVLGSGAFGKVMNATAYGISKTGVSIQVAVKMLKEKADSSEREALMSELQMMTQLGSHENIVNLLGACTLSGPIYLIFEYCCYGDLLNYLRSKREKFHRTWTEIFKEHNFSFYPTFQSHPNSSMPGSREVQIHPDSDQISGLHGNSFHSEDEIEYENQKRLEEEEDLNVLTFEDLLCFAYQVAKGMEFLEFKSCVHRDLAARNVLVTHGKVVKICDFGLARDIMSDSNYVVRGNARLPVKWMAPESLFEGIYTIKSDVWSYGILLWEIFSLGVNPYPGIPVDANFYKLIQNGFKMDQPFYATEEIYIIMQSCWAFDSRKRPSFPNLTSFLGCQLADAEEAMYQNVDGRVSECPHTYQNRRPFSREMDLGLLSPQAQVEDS

Another experiment concerns the target T2, TBK1 (Homo sapiens, UniProt Q9UHD2).
T2 construct: purchased Eurofins DiscoverX KINOMEscan
T2 sequence (Q9UHD2 1-729): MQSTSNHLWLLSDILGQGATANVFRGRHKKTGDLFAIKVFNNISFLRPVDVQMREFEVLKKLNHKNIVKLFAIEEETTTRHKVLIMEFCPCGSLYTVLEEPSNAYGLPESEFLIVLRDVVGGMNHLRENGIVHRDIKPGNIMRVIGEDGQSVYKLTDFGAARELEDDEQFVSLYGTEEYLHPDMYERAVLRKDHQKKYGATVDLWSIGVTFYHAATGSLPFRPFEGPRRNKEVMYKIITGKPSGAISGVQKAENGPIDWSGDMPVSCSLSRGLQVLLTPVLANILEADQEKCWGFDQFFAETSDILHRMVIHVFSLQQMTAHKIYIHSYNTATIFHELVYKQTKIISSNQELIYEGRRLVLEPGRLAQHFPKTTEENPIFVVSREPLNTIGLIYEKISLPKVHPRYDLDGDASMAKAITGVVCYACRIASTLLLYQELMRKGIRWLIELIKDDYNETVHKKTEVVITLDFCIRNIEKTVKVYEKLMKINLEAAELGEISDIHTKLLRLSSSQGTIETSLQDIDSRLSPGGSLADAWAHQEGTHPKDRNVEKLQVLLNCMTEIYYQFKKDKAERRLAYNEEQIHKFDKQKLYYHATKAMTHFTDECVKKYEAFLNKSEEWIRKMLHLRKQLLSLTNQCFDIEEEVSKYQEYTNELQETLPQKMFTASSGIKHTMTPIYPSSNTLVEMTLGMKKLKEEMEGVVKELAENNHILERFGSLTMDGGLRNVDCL

Another experiment concerns the target T3, MST1R (Homo sapiens, UniProt Q04912).
T3 construct: purchased Eurofins DiscoverX KINOMEscan

A further experiment concerns the target T4, RIPK2 (Homo sapiens, UniProt O43353).
T4 construct: purchased Eurofins DiscoverX KINOMEscan

The target in a further experiment is T5, IGF1R (Homo sapiens, UniProt P08069).
T5 construct: purchased Eurofins DiscoverX KINOMEscan

The target in a further experiment is T6, MAP4K2 (Homo sapiens, UniProt Q12851).
T6 construct: purchased Eurofins DiscoverX KINOMEscan
T6 sequence (Q12851 1-820): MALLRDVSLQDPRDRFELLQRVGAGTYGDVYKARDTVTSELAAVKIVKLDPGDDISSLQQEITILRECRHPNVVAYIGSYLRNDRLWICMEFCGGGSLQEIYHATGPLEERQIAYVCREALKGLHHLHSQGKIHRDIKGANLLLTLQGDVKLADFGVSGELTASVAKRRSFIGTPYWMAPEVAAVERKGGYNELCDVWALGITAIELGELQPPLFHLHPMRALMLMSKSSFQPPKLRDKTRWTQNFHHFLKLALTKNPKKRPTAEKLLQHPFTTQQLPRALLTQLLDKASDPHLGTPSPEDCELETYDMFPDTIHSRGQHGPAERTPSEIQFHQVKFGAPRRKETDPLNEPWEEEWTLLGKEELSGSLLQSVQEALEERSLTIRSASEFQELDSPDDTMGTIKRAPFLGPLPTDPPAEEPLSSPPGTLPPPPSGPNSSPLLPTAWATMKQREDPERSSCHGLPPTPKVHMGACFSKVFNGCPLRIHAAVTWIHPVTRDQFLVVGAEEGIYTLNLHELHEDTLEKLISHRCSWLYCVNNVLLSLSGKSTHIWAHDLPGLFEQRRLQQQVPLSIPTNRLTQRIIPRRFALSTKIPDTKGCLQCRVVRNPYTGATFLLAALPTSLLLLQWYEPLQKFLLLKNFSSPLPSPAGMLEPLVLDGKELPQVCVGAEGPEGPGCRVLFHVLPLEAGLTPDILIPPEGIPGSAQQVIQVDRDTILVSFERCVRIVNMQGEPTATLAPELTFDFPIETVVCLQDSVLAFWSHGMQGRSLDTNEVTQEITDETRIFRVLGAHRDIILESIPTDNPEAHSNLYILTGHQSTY

SMILES strings stand for the structures.

T5 sequence (P08069 31-1367 limits assumed): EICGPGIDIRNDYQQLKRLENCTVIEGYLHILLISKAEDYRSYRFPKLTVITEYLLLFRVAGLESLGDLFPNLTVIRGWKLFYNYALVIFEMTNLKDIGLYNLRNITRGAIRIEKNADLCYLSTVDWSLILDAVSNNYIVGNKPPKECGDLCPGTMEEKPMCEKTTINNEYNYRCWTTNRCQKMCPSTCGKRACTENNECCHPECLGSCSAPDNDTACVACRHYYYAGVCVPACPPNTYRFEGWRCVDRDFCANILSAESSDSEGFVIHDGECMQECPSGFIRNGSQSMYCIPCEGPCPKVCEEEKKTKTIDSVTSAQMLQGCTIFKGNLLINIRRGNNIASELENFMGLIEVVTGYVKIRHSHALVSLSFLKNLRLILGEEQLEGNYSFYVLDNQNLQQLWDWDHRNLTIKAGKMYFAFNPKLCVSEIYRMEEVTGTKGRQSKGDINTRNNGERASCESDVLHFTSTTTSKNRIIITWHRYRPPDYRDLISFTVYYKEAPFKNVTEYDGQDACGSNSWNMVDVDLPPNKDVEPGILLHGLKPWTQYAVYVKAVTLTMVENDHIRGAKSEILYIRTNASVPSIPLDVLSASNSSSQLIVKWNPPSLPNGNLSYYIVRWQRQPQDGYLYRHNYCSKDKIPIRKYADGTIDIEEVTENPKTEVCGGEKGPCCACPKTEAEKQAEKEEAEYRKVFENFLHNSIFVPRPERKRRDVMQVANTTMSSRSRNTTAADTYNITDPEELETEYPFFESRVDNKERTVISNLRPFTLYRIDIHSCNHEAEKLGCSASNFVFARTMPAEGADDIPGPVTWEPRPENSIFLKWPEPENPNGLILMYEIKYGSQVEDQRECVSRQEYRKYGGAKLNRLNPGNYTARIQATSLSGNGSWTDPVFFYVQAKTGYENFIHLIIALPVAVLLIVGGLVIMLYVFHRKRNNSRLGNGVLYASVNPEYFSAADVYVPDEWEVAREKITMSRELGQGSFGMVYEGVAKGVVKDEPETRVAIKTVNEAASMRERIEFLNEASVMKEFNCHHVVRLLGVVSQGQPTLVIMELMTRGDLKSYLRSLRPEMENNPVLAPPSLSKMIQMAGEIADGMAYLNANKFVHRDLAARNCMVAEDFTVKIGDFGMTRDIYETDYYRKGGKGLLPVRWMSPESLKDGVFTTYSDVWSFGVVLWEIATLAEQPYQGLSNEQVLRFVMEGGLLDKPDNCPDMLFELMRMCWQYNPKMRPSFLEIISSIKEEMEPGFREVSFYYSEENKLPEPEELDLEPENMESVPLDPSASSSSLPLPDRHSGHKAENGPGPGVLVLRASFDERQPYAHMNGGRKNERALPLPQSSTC
T4 sequence (O43353 whole entry): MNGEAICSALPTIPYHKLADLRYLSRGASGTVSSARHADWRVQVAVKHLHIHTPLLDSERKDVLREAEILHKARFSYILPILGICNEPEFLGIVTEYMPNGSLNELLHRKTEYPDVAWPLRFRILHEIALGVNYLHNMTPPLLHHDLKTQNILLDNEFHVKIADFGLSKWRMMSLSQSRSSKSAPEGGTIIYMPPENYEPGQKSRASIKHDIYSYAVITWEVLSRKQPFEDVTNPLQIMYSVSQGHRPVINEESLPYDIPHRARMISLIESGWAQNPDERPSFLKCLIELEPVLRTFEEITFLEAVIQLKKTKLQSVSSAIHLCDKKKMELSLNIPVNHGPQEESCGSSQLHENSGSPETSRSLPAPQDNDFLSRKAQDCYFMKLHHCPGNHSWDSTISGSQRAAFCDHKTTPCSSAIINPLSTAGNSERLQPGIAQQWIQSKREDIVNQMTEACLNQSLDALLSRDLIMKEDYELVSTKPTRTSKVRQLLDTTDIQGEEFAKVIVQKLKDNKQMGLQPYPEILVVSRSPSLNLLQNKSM
T3 sequence (Q04912 25-1400): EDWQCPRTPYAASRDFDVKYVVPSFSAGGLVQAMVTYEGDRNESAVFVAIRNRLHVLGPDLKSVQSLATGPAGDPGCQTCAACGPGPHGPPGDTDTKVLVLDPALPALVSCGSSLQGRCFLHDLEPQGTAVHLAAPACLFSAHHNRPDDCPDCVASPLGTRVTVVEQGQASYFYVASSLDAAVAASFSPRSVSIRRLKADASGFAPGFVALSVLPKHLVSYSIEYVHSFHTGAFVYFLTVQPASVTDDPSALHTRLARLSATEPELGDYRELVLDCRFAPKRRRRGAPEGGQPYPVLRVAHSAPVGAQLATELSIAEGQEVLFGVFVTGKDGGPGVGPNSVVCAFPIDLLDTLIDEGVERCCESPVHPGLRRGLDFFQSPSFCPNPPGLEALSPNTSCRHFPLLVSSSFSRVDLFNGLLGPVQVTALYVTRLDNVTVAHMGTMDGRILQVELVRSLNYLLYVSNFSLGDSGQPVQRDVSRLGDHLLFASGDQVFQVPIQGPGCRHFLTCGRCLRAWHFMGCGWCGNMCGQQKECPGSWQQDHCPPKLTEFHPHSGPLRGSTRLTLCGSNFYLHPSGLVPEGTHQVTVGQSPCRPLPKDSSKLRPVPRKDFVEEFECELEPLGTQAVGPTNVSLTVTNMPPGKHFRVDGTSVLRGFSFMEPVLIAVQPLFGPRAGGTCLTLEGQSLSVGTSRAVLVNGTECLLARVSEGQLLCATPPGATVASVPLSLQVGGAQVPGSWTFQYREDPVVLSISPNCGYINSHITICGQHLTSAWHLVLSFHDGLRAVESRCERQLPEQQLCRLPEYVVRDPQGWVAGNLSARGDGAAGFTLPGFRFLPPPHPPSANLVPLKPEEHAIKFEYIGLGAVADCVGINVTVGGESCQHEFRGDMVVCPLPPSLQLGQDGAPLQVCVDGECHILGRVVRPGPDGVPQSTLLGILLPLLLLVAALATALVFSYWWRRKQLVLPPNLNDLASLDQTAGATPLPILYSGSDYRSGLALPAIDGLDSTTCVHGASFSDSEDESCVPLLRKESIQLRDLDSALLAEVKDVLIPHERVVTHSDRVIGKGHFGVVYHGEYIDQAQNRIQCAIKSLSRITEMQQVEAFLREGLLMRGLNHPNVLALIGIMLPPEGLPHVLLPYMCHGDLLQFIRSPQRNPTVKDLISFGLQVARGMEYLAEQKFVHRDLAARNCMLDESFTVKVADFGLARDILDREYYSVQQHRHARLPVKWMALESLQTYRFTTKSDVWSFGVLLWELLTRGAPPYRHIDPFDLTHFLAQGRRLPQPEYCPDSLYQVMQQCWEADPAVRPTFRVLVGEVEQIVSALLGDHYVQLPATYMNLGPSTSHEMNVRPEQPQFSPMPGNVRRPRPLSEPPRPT

With `Clc1cc(NCC2CC2)c2ncc(-c3ccc4[nH]ncc4c3)n2n1` [compound 2, 6-Chloro-N-(cyclopropylmethyl)-3-(1H-indazol-5-yl)imidazo[1,2-b]pyridazin-8-amine], the remaining binding at 1 µM came out at 3.8% at FLT3(K663Q); 71% at TBK1; 99% at MST1R; 88% on RIPK2; 100% at IGF1R; 99% on MAP4K2.
Take `O=C(CN1CCOCC1)N[C@H]1CC[C@H](Nc2cc(Cl)nn3c(-c4ccc5[nH]ncc5c4)cnc23)CC1` [compound 26]: the remaining binding at 1 µM at FLT3(K663Q) stood at 13%; on TBK1, 90%; at MST1R it was 64%; on RIPK2, 61%; at IGF1R, 100%; at MAP4K2 it was 76%.
For `CN1CCC(CNc2cc(Cl)nn3c(-c4cc5nc(Nc6ccccc6)[nH]c5cc4F)cnc23)CC1` [compound 31, 6-Chloro-3-(6-fluoro-2-(phenylamino)-1H-benzo[d]imidazol-5-yl)-N-((1-methylpiperidin-4-yl)methyl)imidazo[1,2-b]pyridazin-8-amine], the remaining binding at 1 µM on FLT3(K663Q) is 83%; at TBK1 it was 76%; on MST1R it was 77%; at RIPK2 it was 100%; at IGF1R it was 95%; at MAP4K2, 85%.
